By IC50 is commonly meant the point on the concentration scale where inhibition reaches its midpoint. A lower IC50 goes with higher potency.

The results in this text go back to PMC9841523 (Journal of Medicinal Chemistry, 2022).

The target in one assay is T1, DNA-PK (Homo sapiens, UniProt P78527).
T1 construct: purchased Promega V4106
Put plainly: Nanosyn Lipid Kinase screen. The class given is biochemical. As for the experimental part: complex formation) controls.
Nanosyn Lipid Kinase screen. Biochemical inhibition of lipid and related protein kinases was determined by Nanosyn (Santa Clara, CA). […]
ADP formation using ADP-Glo (Promega). Kinase reactions were assembled in 384 well plates in a total volume of 20 µL as follows. […]
Compounds were serially pre-diluted in DMSO and added to the protein samples by acoustic dispensing (200 nL, Labcyte Echo). Concentration of DMSO was equalized to 1% in all samples. All test compounds were tested at 12 concentrations, 3x dilution intervals. The control samples (0%-inhibition in the absence of inhibitor, DMSO only) and 100%-inhibition (in the absence of enzyme) were assembled in replicates of four and were used to calculate %-inhibition in the presence of compounds. […]

Another assay addresses T2, CDK2 (Homo sapiens, UniProt P24941).
T2 construct: purchased ActivX Biosciences (KiNativ)
Put plainly: KiNativ kinase panel. The note with it: 1 μM, MCF-7 Cells. Format: cell-based.

In another assay the test system is FYN, SRC, YES. Description: KiNativ kinase panel. Format: cell-based, human. The note with it: 1 μM, MCF-7 Cells, Activation Loop.
The target in a further assay is T3, JAK1 domain1 (Homo sapiens, UniProt P23458).
T3 construct: MCF7 cells were exposed to; endogenous in cells; host or cells: MCF7
T3 sequence (P23458 whole entry, the tested form may be a part): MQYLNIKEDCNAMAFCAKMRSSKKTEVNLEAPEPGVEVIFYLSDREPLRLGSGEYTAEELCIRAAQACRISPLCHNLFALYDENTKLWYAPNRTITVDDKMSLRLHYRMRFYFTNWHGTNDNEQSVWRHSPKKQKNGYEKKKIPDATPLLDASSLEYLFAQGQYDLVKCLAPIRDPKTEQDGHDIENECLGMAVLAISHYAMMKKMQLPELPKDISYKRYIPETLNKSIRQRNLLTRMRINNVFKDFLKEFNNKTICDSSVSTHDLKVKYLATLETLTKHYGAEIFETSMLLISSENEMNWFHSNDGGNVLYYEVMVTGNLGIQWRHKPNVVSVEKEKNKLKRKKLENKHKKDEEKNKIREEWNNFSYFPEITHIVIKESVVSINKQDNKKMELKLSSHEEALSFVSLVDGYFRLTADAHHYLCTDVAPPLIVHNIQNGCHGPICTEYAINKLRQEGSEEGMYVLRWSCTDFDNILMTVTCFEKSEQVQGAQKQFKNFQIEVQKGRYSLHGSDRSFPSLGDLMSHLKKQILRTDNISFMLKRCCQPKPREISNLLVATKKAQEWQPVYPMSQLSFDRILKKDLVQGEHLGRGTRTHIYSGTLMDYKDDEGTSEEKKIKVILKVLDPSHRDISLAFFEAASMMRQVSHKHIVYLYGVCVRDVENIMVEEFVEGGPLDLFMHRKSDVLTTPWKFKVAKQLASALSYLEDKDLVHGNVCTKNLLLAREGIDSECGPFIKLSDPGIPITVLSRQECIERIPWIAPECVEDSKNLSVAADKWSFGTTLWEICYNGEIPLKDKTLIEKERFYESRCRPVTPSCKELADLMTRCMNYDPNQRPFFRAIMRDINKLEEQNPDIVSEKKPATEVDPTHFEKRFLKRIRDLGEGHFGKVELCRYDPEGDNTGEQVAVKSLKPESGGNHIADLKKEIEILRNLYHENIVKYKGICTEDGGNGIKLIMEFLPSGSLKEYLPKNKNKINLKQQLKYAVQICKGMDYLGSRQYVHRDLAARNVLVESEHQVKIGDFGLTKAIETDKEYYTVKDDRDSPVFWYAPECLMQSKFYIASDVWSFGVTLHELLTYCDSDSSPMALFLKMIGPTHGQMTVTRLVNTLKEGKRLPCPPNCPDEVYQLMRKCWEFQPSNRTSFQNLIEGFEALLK
Description: KiNativ kinase panel. The class given is cell-based. The note with it: 1 μM; MCF-7 Cells; Activation Loop; QLASALSYLEDKDLVHGNVCTKNLLLAR

The subject of another assay is MAP2K1, MAP2K2. Description: KiNativ kinase panel. The note with it: 1 μM, MCF-7 Cells. The class given is cell-based, human.
Another assay deals with MAP3K15, MAP3K5, MAP3K6. Description: KiNativ kinase panel. Format: cell-based, human. The note with it: 1 μM; MCF-7 Cells; Lys1; IAIKEIPER
For another assay, the system named is MARK2, MARK3. Put plainly: KiNativ kinase panel. Format: cell-based, human. The note with it: 1 μM, MCF-7 Cells, Lys2.
The next assay addresses T4, MASTL (Homo sapiens, UniProt Q96GX5).
T4 construct: purchased ActivX Biosciences (KiNativ)
T4 sequence (Q96GX5 1-879): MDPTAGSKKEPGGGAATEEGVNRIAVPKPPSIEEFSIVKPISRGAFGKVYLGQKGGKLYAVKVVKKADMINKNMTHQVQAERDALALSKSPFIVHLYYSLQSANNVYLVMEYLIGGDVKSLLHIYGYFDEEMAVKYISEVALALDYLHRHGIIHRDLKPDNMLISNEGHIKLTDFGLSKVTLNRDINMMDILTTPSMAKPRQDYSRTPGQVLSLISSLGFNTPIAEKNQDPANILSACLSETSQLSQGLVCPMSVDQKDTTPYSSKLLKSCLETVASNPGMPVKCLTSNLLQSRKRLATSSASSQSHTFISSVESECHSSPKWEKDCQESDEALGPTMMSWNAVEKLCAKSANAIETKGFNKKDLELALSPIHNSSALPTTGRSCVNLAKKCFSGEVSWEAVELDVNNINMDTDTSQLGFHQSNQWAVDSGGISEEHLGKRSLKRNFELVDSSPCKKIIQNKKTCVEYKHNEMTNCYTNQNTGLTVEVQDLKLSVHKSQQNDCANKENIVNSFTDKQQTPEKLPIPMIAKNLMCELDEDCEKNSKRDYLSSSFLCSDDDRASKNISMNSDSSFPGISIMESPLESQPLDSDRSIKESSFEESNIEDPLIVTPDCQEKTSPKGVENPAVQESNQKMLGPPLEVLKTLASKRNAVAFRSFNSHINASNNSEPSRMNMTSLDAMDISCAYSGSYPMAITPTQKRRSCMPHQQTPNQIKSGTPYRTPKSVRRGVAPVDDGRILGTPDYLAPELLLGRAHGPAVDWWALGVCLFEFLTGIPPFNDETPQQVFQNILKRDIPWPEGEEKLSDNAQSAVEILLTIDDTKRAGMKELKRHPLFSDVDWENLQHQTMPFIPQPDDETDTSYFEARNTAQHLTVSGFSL
Put plainly: KiNativ kinase panel. The note with it: 1 μM, MCF-7 Cells. Format: cell-based.

The test system of another assay is PITSLRE. Put plainly: KiNativ kinase panel. The class given is cell-based, human. The note with it: 1 μM; MCF-7 Cells; Lys2; DLKTSNLLLSHAGILK
The next assay deals with PKCa, PKCg. Put plainly: KiNativ kinase panel. The class given is cell-based, human. The note with it: 1 μM, MCF-7 Cells, Other.
The next assay concerns the target T5, PKR (Homo sapiens, UniProt P19525).
T5 construct: MCF7 cells were exposed to; endogenous in cells; host or cells: MCF7
Put plainly: KiNativ kinase panel. The class given is cell-based. The note with it: 1 μM, MCF-7 Cells.

For a further assay, the target named is T6, ULK3 (Homo sapiens, UniProt Q6PHR2).
T6 construct: endogenous in cells; host or cells: MCF7
T6 sequence (Q6PHR2 1-472): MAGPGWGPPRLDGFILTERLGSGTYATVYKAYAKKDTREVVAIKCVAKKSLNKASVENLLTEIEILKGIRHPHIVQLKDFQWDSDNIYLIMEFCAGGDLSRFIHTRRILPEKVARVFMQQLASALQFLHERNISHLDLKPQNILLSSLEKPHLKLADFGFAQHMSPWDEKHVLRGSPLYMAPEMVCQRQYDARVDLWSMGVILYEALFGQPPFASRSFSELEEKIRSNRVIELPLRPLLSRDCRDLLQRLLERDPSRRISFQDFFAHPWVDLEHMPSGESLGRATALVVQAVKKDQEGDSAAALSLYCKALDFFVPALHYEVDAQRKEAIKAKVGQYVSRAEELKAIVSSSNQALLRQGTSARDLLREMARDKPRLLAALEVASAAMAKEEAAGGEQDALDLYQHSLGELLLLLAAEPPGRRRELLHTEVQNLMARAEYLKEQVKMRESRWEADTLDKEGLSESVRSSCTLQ
Description: KiNativ kinase panel. The note with it: 1 μM, MCF-7 Cells. Format: cell-based.

Where [1] appears, read: Activation Loop, IGDFGLVTSLKNDGKR

Like-named read-outs stand apart in the source and are kept apart here. A value given as a limit tells only on which side of the number the result lay.

T5 sequence (P19525 whole entry): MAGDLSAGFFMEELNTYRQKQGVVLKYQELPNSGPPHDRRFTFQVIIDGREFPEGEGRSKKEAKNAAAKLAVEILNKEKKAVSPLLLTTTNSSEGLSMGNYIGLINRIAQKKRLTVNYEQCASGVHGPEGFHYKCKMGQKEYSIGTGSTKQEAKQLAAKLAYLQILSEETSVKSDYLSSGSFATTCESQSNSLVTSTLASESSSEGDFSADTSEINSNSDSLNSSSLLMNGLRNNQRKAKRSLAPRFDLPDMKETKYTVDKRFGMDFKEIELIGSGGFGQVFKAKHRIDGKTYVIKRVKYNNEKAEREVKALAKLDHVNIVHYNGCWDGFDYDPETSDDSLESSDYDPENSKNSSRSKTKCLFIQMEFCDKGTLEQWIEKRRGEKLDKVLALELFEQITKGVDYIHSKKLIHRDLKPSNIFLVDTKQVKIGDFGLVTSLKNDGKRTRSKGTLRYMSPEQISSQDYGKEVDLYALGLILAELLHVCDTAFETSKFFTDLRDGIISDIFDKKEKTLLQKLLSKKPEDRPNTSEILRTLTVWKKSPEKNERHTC

The compound `CO[C@H]1C[C@@H]2CC[C@@H](C)[C@@](O)(O2)C(=O)C(=O)N2CCCC[C@H]2C(=O)O[C@H]([C@H](C)C[C@@H]2CC[C@@H](OC(=O)NCCOCCOCCOCCOCCOCCOCCOCCOCCC(=O)N3CCc4cc(Cn5nc(-c6ccc7oc(N)nc7c6)c6c(N)ncnc65)ccc4C3)[C@H](OC)C2)C[C@@H](O)[C@H](C)/C=C(\C)[C@@H](O)[C@@H](OC)C(=O)[C@H](C)C[C@H](C)/C=C/C=C/C=C/1C` [compound 38] gave an IC50 at DNA-PK of more than 1 µM. Besides, the “KiNativ Kinase Panel Data” value was 1.0 on CDK2 (Lys1, LTGEVVALKK); 13.1 at CDK2 (Lys2, DLKPQNLLINTEGAIK); -6.3 in the assay on FYN, SRC, YES ([…]); 0.8 at JAK1 domain1; 14.8 in the assay on MAP2K1, MAP2K2 (Lys1, KLIHLEIKPAIR); 7.6 with MAP2K1, MAP2K2 (Lys2, […]). Besides, the “KiNativ Kinase Panel Data” value in the assay on MAP3K15, MAP3K5, MAP3K6 is listed as 24.5; with MARK2, MARK3 ([…]), -0.4; at MASTL (ATP Loop, GAFGKVYLGQK), 4.3; at MASTL (Lys1, LYAVKVVK), 17.4; with PITSLRE, 17.8; with PKCa, PKCg ([…]), -20.9. Moreover, the “KiNativ Kinase Panel Data” value is 12.1 at PKR (setting [1]); 15.2 on PKR (Lys1, TYVIKR); 11.0 at PKR (Lys2, DLKPSNIFLVDTK); 0.5 at ULK3 (Lys1, […]); 11.9 at ULK3 (Lys2, […]).

At DNA-PK (Nanosyn, with FKBP12), `CO[C@H]1C[C@@H]2CC[C@@H](C)[C@@](O)(O2)C(=O)C(=O)N2CCCC[C@H]2C(=O)O[C@H]([C@H](C)C[C@@H]2CC[C@@H](OC(=O)NCCOCCOCCOCCOCCOCCOCCOCCOCCC(=O)NCCS(=O)(=O)c3ccc(C(=O)N4CCOc5ccc(-c6ccc(N)nc6)cc5C4)c(C)c3F)[C@H](OC)C2)C[C@@H](O)[C@H](C)/C=C(\C)[C@@H](O)[C@@H](OC)C(=O)[C@H](C)C[C@H](C)/C=C/C=C/C=C/1C` [compound 40] yielded an IC50 of more than 1 µM. For the same compound, the “KiNativ Kinase Panel Data” value is recorded as -29.1 on CDK2 (Lys1, LTGEVVALKK); -40.9 on CDK2 (Lys2, DLKPQNLLINTEGAIK); -28.5 in the assay on FYN, SRC, YES (QGAKFPIKWTAPEAALYGR); -1.7 at JAK1 domain1; -34.9 in the assay with MAP2K1, MAP2K2 (Lys1, KLIHLEIKPAIR); -22.1 in the assay with MAP2K1, MAP2K2 (Lys2, DVKPSNILVNSR). The “KiNativ Kinase Panel Data” value in the assay on MAP3K15, MAP3K5, MAP3K6 is -4.5; with MARK2, MARK3 (DLKAENLLLDADMNIK), 15.7; at MASTL (Lys1, LYAVKVVK) it was -10.0; in the assay on PITSLRE, 13.7; in the assay on PKCa, PKCg (NLIPMDPNGLSDPYVKLK) it was 31.7; on PKR (setting [1]), 17.4. The “KiNativ Kinase Panel Data” value on PKR (Lys1, TYVIKR) is on record as 9.6; on PKR (Lys2, DLKPSNIFLVDTK), -32.5; on ULK3 (Lys1, EVVAIKCVAK) it was -22.8; on ULK3 (Lys2, NISHLDLKPQNILLSSLEKPHLK), -5.4.
